Read-outs that look alike come from different tables or passages of the source.

One assay deals with CDK9/CycT1 (Homo sapiens (Human), UniProt P50750). The assay is described as follows: CDK9/CycT1 kinase assay (TR-FRET). The format is biochemical. The following applies: Method 1. The method in brief:
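TR-FRET read-out of kinase inhibition, with a biotin-Ttds-tagged peptide as substrate. Enzyme: human CDK9 and CycT1, full-length with His tags, produced in insect cells and purified on Ni-NTA.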

Assay [1] has as its system B16F10 mouse melanoma cells. The assay is described as follows: Proliferation assay (crystal violet), B16F10. It is filed as cell-based. The following applies: Method 3, read-out: Inhibition of B16F10 cell proliferation, IC50. How it is done: (§1) Cultivated tumour cells (NCI-H460, human non-small cell lung carcinoma cells, ATCC HTB-177; DU145, hormone-independent human prostate carcinoma cells, ATCC HTB-81; HeLa-MaTu, human cervical carcinoma cells, EPO-GmbH, Berlin; HeLa-MaTu-ADR, multidrug-resistant human cervical carcinoma cells, EPO-GmbH, Berlin; HeLa human cervical tumour cells, ATCC CCL-2; Caco-2 human colorectal carcinoma, ATCC HTB-37; B16F10 mouse melanoma cells, ATCC CRL-6475) were plated at a density of 5000 cells/well (DU145, HeLa-MaTu-ADR), 3000 cells/well (NCI-H460, HeLa-MaTu, HeLa), 1500 cells/well (Caco-2), or 1000 cells/well (B16 F10) in a 96-well multititer plate in 200 μL of their respective growth medium supplemented 10% fetal calf serum. After 24 hours, the cells of one plate (zero-point plate) were stained with crystal violet (see below), while the medium of the other plates was replaced by fresh culture medium (200 μL), to which the test substances were added in various concentrations (0 M, as well as in the range of […]; the final concentration of the solvent dimethylsulfoxide was 0.5%). The cells were incubated for 4 days in the presence of test substances. Cell proliferation was determined by staining the cells with crystal violet: the cells were fixed by adding 20 μL/measuring point of an 11% glutaric aldehyde solution for 15 minutes at room temperature. After three washing cycles of the fixed cells with water, the plates were dried at room temperature. The cells were stained by adding 100 μL/measuring point of a 0.1% crystal violet solution (pH 3.0). After three washing cycles of the stained cells with water, the plates were dried at room temperature. The dye was dissolved by adding 100 μL/measuring point of a 10% acetic acid solution. The absorbance was determined by photometry at a wavelength of 595 nm. The change of cell number, in percent, was calculated by normalization of the measured values to the absorbance values of the zero-point plate (=0%) and the absorbance of the untreated (0 M) cells (=100%). The IC50 values were determined by means of a 4 parameter fit.

The test system of assay [2] is NCI-H460, human non-small cell lung carcinoma cells. The assay is described as follows: Proliferation assay (crystal violet), NCI-H460. It is filed as cell-based. The following applies: Method 3, read-out: Inhibition of NCI-H460 cell proliferation, IC50. How it is done:
as §1

In another assay the target is CDK2/CycE (Homo sapiens (Human), UniProt P24941). In words: CDK2/CycE kinase assay (TR-FRET). It is filed as biochemical. The following applies: Method 2. The method in brief: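 TR-FRET measurement of inhibition of phosphorylation of a biotinylated peptide substrate. Enzyme complex consisted of human CDK2 and CycE, each as a GST fusion made in Sf9 cells and purified over glutathione-Sepharose.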
A general note: TR-FRET usually uses a lanthanide donor and a delayed reading to cut background.

Assay [3] deals with Caco-2 human colorectal carcinoma. In words: Proliferation assay (crystal violet), Caco-2. The format is cell-based. The following applies: Method 3, read-out: Inhibition of Caco-2 cell proliferation, IC50. How it is done: as §1
Assay [4] deals with HeLa-MaTu-ADR, multidrug-resistant human cervical carcinoma cells. In words: Proliferation assay (crystal violet), HeLa-MaTu-ADR. The following applies: Method 3, read-out: Inhibition of HeLa/MaTu/ADR cell proliferation, IC50. The format is cell-based. How it is done:
as §1

For assay [5], the system named is HeLa human cervical tumour cells. The assay is described as follows: Proliferation assay (crystal violet), HeLa. It is filed as cell-based. The following applies: Method 3, read-out: Inhibition of HeLa cell proliferation, IC50. The method in brief: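 4-day compound exposure ([…]; DMSO 0.5%) starting 24 h post-plating. Densities: NCI-H460 and HeLa 3000, HeLa-MaTu-ADR 5000, Caco-2 1500 cells/well; 10% FCS. Glutaraldehyde fix, crystal violet stain, A595.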

Assay [6] has as its system DU145, hormone-independent human prostate carcinoma cells. In words: Proliferation assay (crystal violet), DU145. The following applies: Method 3, read-out: Inhibition of DU145 cell proliferation, IC50. The format is cell-based. Here is the method: as §1
[7] abbreviates: Mus musculus, B16-F10, B16F10 cells.
[8] abbreviates: Homo sapiens, NCI-H460, NCI-H460 cells.
[9] abbreviates: Homo sapiens, Caco-2, Caco-2 cells.
[10] abbreviates: Homo sapiens, DU-145, DU145 cells.

CDK9/CycT1, sequence (P50750 whole entry): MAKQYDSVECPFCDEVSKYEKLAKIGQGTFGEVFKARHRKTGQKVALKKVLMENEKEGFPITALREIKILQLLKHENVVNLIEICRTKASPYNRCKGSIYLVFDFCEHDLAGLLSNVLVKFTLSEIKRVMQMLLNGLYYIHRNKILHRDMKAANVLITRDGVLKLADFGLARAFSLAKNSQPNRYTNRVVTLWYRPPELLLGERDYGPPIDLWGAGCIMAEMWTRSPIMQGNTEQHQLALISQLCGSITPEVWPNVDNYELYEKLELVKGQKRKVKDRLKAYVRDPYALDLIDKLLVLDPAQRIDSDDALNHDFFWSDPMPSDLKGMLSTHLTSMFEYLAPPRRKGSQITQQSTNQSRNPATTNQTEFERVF
CDK9/CycT1, sequence (O60563 whole entry partner): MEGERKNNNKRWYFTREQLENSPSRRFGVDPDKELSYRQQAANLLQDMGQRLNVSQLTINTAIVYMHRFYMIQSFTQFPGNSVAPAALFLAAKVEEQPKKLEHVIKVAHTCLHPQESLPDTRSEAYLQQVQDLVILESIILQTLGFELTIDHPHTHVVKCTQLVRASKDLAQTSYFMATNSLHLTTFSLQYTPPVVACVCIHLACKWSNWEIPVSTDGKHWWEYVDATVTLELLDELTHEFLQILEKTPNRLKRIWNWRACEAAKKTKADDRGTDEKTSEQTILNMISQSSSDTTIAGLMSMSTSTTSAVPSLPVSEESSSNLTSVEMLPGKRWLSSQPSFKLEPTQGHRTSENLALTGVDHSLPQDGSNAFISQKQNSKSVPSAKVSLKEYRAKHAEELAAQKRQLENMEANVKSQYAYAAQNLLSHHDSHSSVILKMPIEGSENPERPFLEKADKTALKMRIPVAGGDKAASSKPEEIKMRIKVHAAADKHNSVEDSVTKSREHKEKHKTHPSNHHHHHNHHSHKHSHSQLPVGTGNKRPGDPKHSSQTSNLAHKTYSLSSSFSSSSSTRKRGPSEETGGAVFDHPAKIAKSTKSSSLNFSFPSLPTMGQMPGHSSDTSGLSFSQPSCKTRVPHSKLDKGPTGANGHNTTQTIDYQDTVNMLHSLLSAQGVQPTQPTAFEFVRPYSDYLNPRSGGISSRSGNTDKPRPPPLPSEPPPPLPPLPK

`COc1cc(F)ccc1-c1ncnc(Nc2cc(F)cc(CS(C)(=O)=NC#N)c2)n1` (single isomer, unassigned) [Example 72, [(3-Fluoro-5-{[4-(4-fluoro-2-methoxyphenyl)-1,3,5-triazin-2-yl]amino}benzyl)(methyl)oxido-λ^6-sulfanylidene]cyanamide]: the IC50 turned out to be 5 nM at CDK9/CycT1; 160 nM in assay [1] (B16F10 cells); 160 nM in assay [2] (NCI-H460 cells); 240 nM against CDK2/CycE; 190 nM in assay [3] (Caco-2 cells); 120 nM in assay [4]. Besides, the IC50 in assay [5] was determined as 71 nM; in assay [6] (DU145 cells), 110 nM.
Take `CS(=N)(=O)Cc1cccc(Nc2ncnc(-c3ccc(F)cc3OCc3ccc(F)cc3)n2)c1` (single isomer, unassigned) [Example 56.b, 4-{4-Fluoro-2-[(4-fluorobenzyl)oxy]phenyl}-N-{3-[(S-methylsulfonimidoyl)methyl]phenyl}-1,3,5-triazin-2-amine]: the IC50 on CDK9/CycT1 came out at 5 nM; in assay [1] (B16F10 cells), 390 nM; in assay [2] (NCI-H460 cells), 470 nM; on CDK2/CycE it was 560 nM; in assay [3] (Caco-2 cells) it was 540 nM; in assay [4], 540 nM. The IC50 in assay [5] came out at 540 nM; in assay [6] (DU145 cells), 400 nM.
As to `CCOC(=O)N=S(C)(=O)Cc1cccc(Nc2ncnc(-c3cccc4c3OCCO4)n2)c1` (racemic) [Example 37, (rac)-Ethyl [(3-{[4-(2,3-dihydro-1,4-benzodioxin-5-yl)-1,3,5-triazin-2-yl]amino}benzyl)(methyl)oxido-λ^6-sulfanylidene]carbamate], the IC50 at CDK9/CycT1 turned out to be 9 nM; in assay [1] (setting [7]), 720 nM; in assay [2] (setting [8]) it was 920 nM; against CDK2/CycE, 2300 nM; in assay [3] (setting [9]), 810 nM; in assay [4] (Homo sapiens, HeLa), 750 nM. For the same molecule, the IC50 in assay [5] (Homo sapiens, HeLa) came out at 630 nM; in assay [6] (setting [10]) it was 500 nM.
On to `CS(=N)(=O)Cc1cccc(Nc2ncnc(-c3ccc(F)cc3OCc3cccc(Cl)c3)n2)c1` (racemic) [Example 92, (rac)-4-{2-[(3-Chlorobenzyl)oxy]-4-fluorophenyl}-N-{3-[(S-methylsulfonimidoyl)methyl]phenyl}-1,3,5-triazin-2-amine], for which the IC50 turned out to be 4 nM on CDK9/CycT1; 390 nM in assay [1] (setting [7]); 170 nM in assay [2] (setting [8]); 250 nM at CDK2/CycE; 430 nM in assay [3] (setting [9]); 360 nM in assay [4] (Homo sapiens, HeLa). Moreover, the IC50 amounted to 470 nM in assay [5] (Homo sapiens, HeLa) and 380 nM in assay [6] (setting [10]).
As for `CCS(=O)(Cc1cccc(Nc2ncnc(-c3ccc(F)cc3OC)n2)c1)=NC#N` (racemic) [Example 107, (rac)-[Ethyl(3-{[4-(4-fluoro-2-methoxyphenyl)-1,3,5-triazin-2-yl]amino}benzyl)oxido-λ^6-sulfanylidene]cyanamide], the IC50 was 4 nM on CDK9/CycT1; 300 nM in assay [1] (setting [7]); 450 nM in assay [2] (setting [8]); 360 nM at CDK2/CycE; 500 nM in assay [3] (setting [9]); 340 nM in assay [4] (Homo sapiens, HeLa). Also, the IC50 in assay [5] (Homo sapiens, HeLa) came to 230 nM; in assay [6] (setting [10]), 280 nM.
Regarding `CS(=N)(=O)Cc1cccc(Nc2ncnc(-c3ccc(F)cc3OCc3ccc(Cl)cc3)n2)c1` (racemic) [Example 87, (rac)-4-{2-[(4-Chlorobenzyl)oxy]-4-fluorophenyl}-N-{3-[(S-methylsulfonimidoyl)methyl]phenyl}-1,3,5-triazin-2-amine], the IC50 at CDK9/CycT1 is 3 nM; in assay [1] (setting [7]), 590 nM; in assay [2] (setting [8]), 570 nM; at CDK2/CycE, 680 nM; in assay [3] (setting [9]), 800 nM; in assay [4] (Homo sapiens, HeLa) it was 450 nM. The IC50 in assay [5] (Homo sapiens, HeLa) amounted to 560 nM; in assay [6] (setting [10]), 610 nM.
In the case of `CS(=N)(=O)Cc1cccc(Nc2ncnc(-c3ccc(F)cc3OCc3ccnc(F)c3)n2)c1` (racemic) [Example 82, (rac)-4-{4-Fluoro-2-[(2-fluoropyridin-4-yl)methoxy]phenyl}-N-{3-[(S-methylsulfonimidoyl)methyl]phenyl}-1,3,5-triazin-2-amine], the IC50 against CDK9/CycT1 was determined as 7 nM; in assay [1] (setting [7]), 150 nM; in assay [2] (setting [8]) it was 180 nM; against CDK2/CycE it was 360 nM; in assay [3] (setting [9]), 180 nM; in assay [4] (Homo sapiens, HeLa) it was 190 nM. In addition, the IC50 in assay [5] (Homo sapiens, HeLa) worked out at 180 nM; in assay [6] (setting [10]) it was 130 nM.
With `CS(=N)(=O)Cc1cccc(Nc2ncnc(-c3ccc(F)cc3OCc3cc(F)c(F)c(F)c3)n2)c1` (racemic) [Example 104, (rac)-4-{4-Fluoro-2-[(3,4,5-trifluorobenzyl)oxy]phenyl}-N-{3-[(S-methylsulfonimidoyl)methyl]phenyl}-1,3,5-triazin-2-amine], the IC50 on CDK9/CycT1 is 2 nM; in assay [1] (setting [7]), 120 nM; in assay [2] (setting [8]), 110 nM; at CDK2/CycE it was 54 nM; in assay [3] (setting [9]), 150 nM; in assay [4] (Homo sapiens, HeLa), 240 nM. Moreover, the IC50 in assay [5] (Homo sapiens, HeLa) was determined as 110 nM; in assay [6] (setting [10]) it was 120 nM.
For the molecule `C=C(CO)COc1cc(F)ccc1-c1ncnc(Nc2cccc(CS(C)(=N)=O)c2)n1` (racemic) [Example 112, (rac)-2-({5-Fluoro-2-[4-({3-[(S-methylsulfonimidoyl)methyl]phenyl}amino)-1,3,5-triazin-2-yl]phenoxy}methyl)prop-2-en-1-ol], the IC50 against CDK9/CycT1 was determined as 4 nM; in assay [1] (setting [7]) it was 320 nM; in assay [2] (setting [8]), 320 nM; at CDK2/CycE, 730 nM; in assay [3] (setting [9]), 350 nM; in assay [4] (Homo sapiens, HeLa) it was 390 nM. Moreover, the IC50 in assay [5] (Homo sapiens, HeLa) was determined as 330 nM; in assay [6] (setting [10]) it was 300 nM.
For the molecule `CS(=N)(=O)Cc1cccc(Nc2ncnc(-c3ccc(F)cc3OCc3ccc(F)cc3)n2)c1` (single isomer, unassigned) [Example 56.a, 4-{4-Fluoro-2-[(4-fluorobenzyl)oxy]phenyl}-N-{3-[(S-methylsulfonimidoyl)methyl]phenyl}-1,3,5-triazin-2-amine], the IC50 against CDK9/CycT1 stood at 4 nM; in assay [1] (setting [7]), 340 nM; in assay [2] (setting [8]), 340 nM; against CDK2/CycE, 560 nM; in assay [3] (setting [9]) it was 430 nM; in assay [4] (Homo sapiens, HeLa), 270 nM. The IC50 turned out to be 350 nM in assay [5] (Homo sapiens, HeLa) and 340 nM in assay [6] (setting [10]).
As for `CS(=N)(=O)Cc1cccc(Nc2ncnc(-c3ccc(F)cc3OCc3cc(F)cc(Cl)c3)n2)c1` (racemic) [Example 94, (rac)-4-{2-[(3-Chloro-5-fluorobenzyl)oxy]-4-fluorophenyl}-N-{3-[(S-methylsulfonimidoyl)methyl]phenyl}-1,3,5-triazin-2-amine], the IC50 on CDK9/CycT1 amounted to 3 nM; in assay [1] (setting [7]) it was 180 nM; in assay [2] (setting [8]), 200 nM; on CDK2/CycE, 230 nM; in assay [3] (setting [9]), 220 nM; in assay [4] (Homo sapiens, HeLa), 190 nM. Also, the IC50 was found to be 110 nM in assay [5] (Homo sapiens, HeLa) and 140 nM in assay [6] (setting [10]).

The values above are taken from patent US9669034B2, “4-aryl-N-phenyl-1,3,5-triazin-2-amines containing a sulfoximine group” (BAYER INTELLECTUAL PROPERTY GMBH, priority 2011, dated 2017).
